Measured values published in ChEMBL document CHEMBL1144606, “Immunomodulatory effects of two sapogenins 1 and 2 isolated from Luffa cylindrica in Balb/C mice” (Bioorg Med Chem Lett, 2007).
Calls of active or inactive are those of the source. No cut-off for these calls is given here.

Legend:
Splenocyte [1] = assay: Enhancement of ConA-stimulated blastogenic responsiveness in BALB/c mouse splenocytes at 100 mg/kg; type: functional, organism-based; set-up: dose 100 mg/kg
Mus musculus [2] = assay: Enhancement of ConA-Stimulated lymphocyte proliferation in BALB/c mouse at 100 mg/kg by MTT assay; type: functional, organism-based; set-up: dose 100 mg/kg
Mus musculus [3] = assay: Increased phagocytic index in BALB/c mouse at 10 mg/kg; type: organism-based; set-up: dose 10 mg/kg; details: in vivo
Splenocyte [4] = assay: Enhancement of ConA-stimulated blastogenic responsiveness in BALB/c mouse splenocytes at 10 mg/kg; type: functional, organism-based; set-up: dose 10 mg/kg
Mus musculus [5] = assay: Immunostimulatory effect against SRBC-inducing plaque forming cells in BALB/c mouse assessed as antibody secreting B cells at 100 mg/kg, po relative to control; type: functional, organism-based; set-up: dose 100 mg/kg
Mus musculus [6] = assay: Immunostimulatory effect against SRBC-inducing plaque forming cells in BALB/c mouse assessed as antibody secreting B cells at 10 mg/kg, po relative to control; type: functional, organism-based; set-up: dose 10 mg/kg
Mus musculus [7] = assay: Enhancement of LPS-Stimulated of lymphocyte proliferation in BALB/c mouse at 100 mg/kg by MTT assay; type: functional, organism-based; set-up: dose 100 mg/kg
Mus musculus [8] = assay: Enhancement of ConA-Stimulated lymphocyte proliferation in BALB/c mouse at 10 mg/kg by MTT assay; type: functional, organism-based; set-up: dose 10 mg/kg
Splenocyte [9] = assay: Enhancement of LPS-stimulated blastogenic responsiveness in BALB/c mouse splenocytes at 100 mg/kg; type: functional, organism-based; set-up: dose 100 mg/kg
Splenocyte [10] = assay: Enhancement of LPS-stimulated blastogenic responsiveness in BALB/c mouse splenocytes at 10 mg/kg; type: functional, organism-based; set-up: dose 10 mg/kg
Mus musculus [11] = assay: Immunostimulatory effect against SRBC-induced hormonal response in BALB/c mouse assessed as antibody production at 10 m/kg; type: functional, organism-based
Mus musculus [12] = assay: Immunostimulatory effect against SRBC-inducing hormoral response in BALB/c mouse assessed as antibody production at 100 mg/kg; type: functional, organism-based; set-up: dose 100 mg/kg
Mus musculus [13] = assay: Enhancement of LPS-Stimulated lymphocyte proliferation in BALB/c mouse at 10 mg/kg by MTT assay; type: functional, organism-based; set-up: dose 10 mg/kg

Activity (Mus musculus [3]) | SMILES | Activity (Splenocyte [1]) | Activity (Mus musculus [2]) | Activity (Splenocyte [4]) | Activity (Mus musculus [5]) | Activity (Mus musculus [6]) | Activity (Mus musculus [7]) | Activity (Mus musculus [8]) | Activity (Splenocyte [9]) | Activity (Splenocyte [10]) | Activity (Mus musculus [11]) | Activity (Mus musculus [12]) | Activity (Mus musculus [13])
Active | CC1(C)CC[C@]2(C(=O)O)[C@H](O)C[C@]3(C)C(=CC[C@@H]4[C@@]5(C)CC[C@H](O)C(C)(C)[C@@H]5CC[C@]43C)[C@@H]2C1 | Active | Active | Active | Active | Active | Active | Active | Active | – | – | – | –
Active | CC1(C)CC[C@]2(C(=O)O)CC[C@]3(C)C(=CC[C@@H]4[C@@]5(C)CC[C@H](O)C(C)(C)[C@@H]5CC[C@]43C)[C@@H]2C1 [OLEANOLIC_ACID] | Active | Active | Active | Active | Active | – | Active | – | Active | Active | inactive | Active
